Source: patent publication US20240148821A1, “PHARMACEUTICAL USE OF CYCLIC PEPTIDE COMPOUND” (CHUGAI SEIYAKU KABUSHIKI KAISHA, priority 2021, published 2024)
Numbered stars: 1 amine (or outer) side, 2 acyl side, 3 side chain; on linkers, the order of the positions; unused ones are H or OH. Bridge positions count the residues as written; N and C are the ends. Square brackets hold non-standard residues; d marks the D form. Peptide text beside a SMILES is read from it. * marks the point of attachment. hPhe(3,5-F2-4-CF3) = N[C@@H](CCc1cc(F)c(C(F)(F)F)c(F)c1)C(=O)O; hPhe(3-Cl-4-CF3) = N[C@@H](CCc1ccc(C(F)(F)F)c(Cl)c1)C(=O)O; hPhe(3-F,4-CF3) = N[C@@H](CCc1ccc(C(F)(F)F)c(F)c1)C(=O)O; NEtPhe(4-CF3) = CCN[C@@H](Cc1ccc(C(F)(F)F)cc1)C(=O)O; NMePhe(4-CF3) = CN[C@@H](Cc1ccc(C(F)(F)F)cc1)C(=O)O; hPhe(4-CF3) = N[C@@H](CCc1ccc(C(F)(F)F)cc1)C(=O)O; NEtPhe(4-Me) = CCN[C@@H](Cc1ccc(C)cc1)C(=O)O; NMePhe(4-Cl) = CN[C@@H](Cc1ccc(Cl)cc1)C(=O)O; X10 = C#Cc1cccc(C[C@H](N[*:1])C(=O)[*:2])c1; NMedβ3hAla = C[C@H](CC(=O)[*:2])N(C)[*:1]; NMeAla(cPent) = CN[C@@H](CC1CCCC1)C(=O)O; NMeGly(cPent) = CN[C@H](C(=O)O)C1CCCC1; Phe(3-I) = N[C@@H](Cc1cccc(I)c1)C(=O)O; NMeGly(cBu) = CN[C@H](C(=O)O)C1CCC1; NMeCha = CN[C@@H](CC1CCCCC1)C(=O)O; Hyp = O=C(O)[C@@H]1C[C@@H](O)CN1; NMeF = CN[C@@H](Cc1ccccc1)C(=O)O; NMeI = CC[C@H](C)[C@H](NC)C(=O)O; NMeD = CN[C@@H](CC(=O)O)C(=O)O; NMeL = CN[C@@H](CC(C)C)C(=O)O; NMeV = CN[C@H](C(=O)O)C(C)C; d(β3hA) = C[C@@H](N)CC(=O)O; NMeS = CN[C@@H](CO)C(=O)O; NPhGly = O=C(O)CNc1ccccc1; Pip = O=C(O)[C@@H]1CCCCN1; Morpholide = C1CN(*)CCO1; NMeA = CN[C@@H](C)C(=O)O; NMeAib = CNC(C)(C)C(=O)O; Nle = CCCC[C@H](N)C(=O)O; Piperidide = C1CCN(*)CC1; Pyrrolidide = C1CCN(*)C1; Ac5c = NC1(C(=O)O)CCCC1; Aze = O=C(O)[C@@H]1CCN1; Ac4c = NC1(C(=O)O)CCC1; Cyclobutyl = C1CC(*)C1; Sar = CNCC(=O)O

Columns and labels:
[1] = target: protein-protein interaction between Kras and SOS1 (biotin-tagged human Kras loaded with GDP, His-tagged human SOS1) (Homo sapiens (Human), UniProt P01116, G12D); assay: Protein-protein interaction inhibition between Kras and SOS1 (KrasG12D-SOS PPI) using AlphaScreen; type: biochemical; details: AlphaScreen; biotin-tagged human Kras loaded with GDP, His-tagged human SOS1; read-out: KRAS G12D-SOS PPI IC50;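 further: kras produced in E. coli, Ni-coupled donor beads and streptavidin acceptor beads, excitation 680 nm with emission detected at 520–620 nm via singlet oxygen transfer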
[2] = tested on: Human pancreatic cancer cell line AsPC-1 (G12D mutation Kras); assay: AsPC-1 cell growth inhibition (AsPC-1 CGI); type: cell-based; details: read-out: AsPC-1 cell growth inhibition, 50% growth inhibitory concentration (IC50 value); 96 hours, CellTiter-Glo, values classified in ranges
Description: Test compounds were serially dilated with dimethyl sulfoxide, and 200 nL was then dispensed to a U-bottom 96-well plate using Labcyte Echo. […] The cell suspension was dispensed to a. plate containing a test compound at 100 μL per well and incubated at 37° C. in a 5% carbon dioxide gas incubator. 96 hours later, 80 μL of CellTiter-Glo (Promega) was added to each well and fluorescence was measured.

## C#Cc1cccc(C[C@@H]2NC(=O)CN(C)C(=O)[C@H](Cc3ccc(Cl)cc3)N(C)C(=O)CN(C)C(=O)CN(C)C(=O)[C@H]([C@@H](C)CC)NC(=O)[C@H](CC(C)C)N(C)C(=O)C[C@@H](C(=O)N3CCCCC3)N(C)C(=O)[C@H](CC(C)C)NC(=O)C(C)(C)N(C)C(=O)[C@H](CCCC)NC2=O)c1 [Compound 2142, (3S,9S,12S,18S,27S,30S,34S)-9-butyl-18-[(4-chlorophenyl)methyl]-12-[(3-ethynylphenyl)methyl]-3,30-diisobutyl-1,6,6,7,16,19,22,25,31-nonamethyl-27-[(1S)-1-methylpropyl]-34-(piperidine-1-carbonyl)-1,4,7,10,13,16,19,22,25,28,31-undecazacyclotetratriacontane-2,5,8,11,14,17,20,23,26,29,32-undecone] ([NMeL]I[Sar][Sar][NMePhe(4-Cl)][Sar][X10][Nle][NMeAib]L[NMeD]-Piperidide; lactam N-11)
[1]
  IC50: 44 nM
[2]
  IC50: > 500 nM

## CCO[C@@H]1C[C@H]2C(=O)NC3(CCC3)C(=O)N(C)[C@@H]([C@@H](C)CC)C(=O)N(C)[C@H](C)CC(=O)N(C)[C@@H](CC(C)C)C(=O)N[C@@H]([C@@H](C)CC)C(=O)N(C)[C@@H](C)C(=O)N3CC[C@H]3C(=O)N(CC)[C@@H](Cc3ccc(C(F)(F)F)cc3)C(=O)N(C)CC(=O)N[C@@H](CCc3cc(F)c(C(F)(F)F)c(F)c3)C(=O)N2C1 [Compound 731] (cyclo([Ac4c][NMeI][NMedβ3hAla][NMeL]I[NMeA][Aze][NEtPhe(4-CF3)][Sar][hPhe(3,5-F2-4-CF3)][Hyp](Et)))
[1]
  IC50: 3.5 nM
[2]
  IC50: ≤ 20 nM

## CC[C@H](C)[C@@H]1NC(=O)[C@H](CC(C)C)N(C)C(=O)C[C@@H](C(=O)N2CCCC2)N(C)C(=O)[C@H]([C@@H](C)CC)N(C)C(=O)C2(CCCC2)NC(=O)[C@@H]2CCCN2C(=O)[C@H](CCc2ccc(C(F)(F)F)c(Cl)c2)NC(=O)CN(C)C(=O)[C@H](Cc2ccc(C(F)(F)F)cc2)N(C)C(=O)[C@@H]2CCN2C(=O)[C@H](C)NC1=O [Compound 1360] ([NMeL]IA[Aze][NMePhe(4-CF3)][Sar][hPhe(3-Cl-4-CF3)]P[Ac5c][NMeI][NMeD]-Pyrrolidide; lactam N-11)
[1]
  IC50: 0.97 nM
[2]
  IC50: ≤ 20 nM

## CC[C@H](C)[C@@H]1NC(=O)[C@H](C)N(C)C(=O)C[C@@H](C(=O)N2CCCCC2)N(C)C(=O)[C@H](C2CCC2)N(C)C(=O)C(C)(C)N(C)C(=O)CN(c2ccccc2)C(=O)[C@H](CCc2ccc(C(F)(F)F)c(Cl)c2)NC(=O)CN(C)C(=O)[C@H](CC2CCCCC2)N(C)C(=O)CN(C)C(=O)CN(C)C1=O [Compound 2150] ([NMeA]I[Sar][Sar][NMeCha][Sar][hPhe(3-Cl-4-CF3)][NPhGly][NMeAib][NMeGly(cBu)][NMeD]-Piperidide; lactam N-11)
[1]
  IC50: 5.7 nM
[2]
  IC50: > 500 nM

## CC[C@H](C)[C@@H]1NC(=O)[C@H](CC(C)C)N(C)C(=O)C[C@@H](C(=O)N2CCOCC2)N(C)C(=O)[C@H](C2CCCC2)N(C)C(=O)C2(CCCC2)NC(=O)[C@@H]2CCCN2C(=O)[C@H](CCc2ccc(C(F)(F)F)c(F)c2)NC(=O)CN(C)C(=O)[C@H](C2CCCC2)N(C)C(=O)[C@@H]2CCN2C(=O)[C@H](C)N(C)C1=O [Compound 871] ([NMeL]I[NMeA][Aze][NMeGly(cPent)][Sar][hPhe(3-F,4-CF3)]P[Ac5c][NMeGly(cPent)][NMeD]-Morpholide; lactam N-11)
[1]
  IC50: 0.78 nM
[2]
  IC50: ≤ 20 nM

## CCCC[C@@H]1NC(=O)[C@H](Cc2cccc(I)c2)NC(=O)CN(C)C(=O)[C@H](CC2CCCC2)N(C)C(=O)[C@@H]2CCN2C(=O)[C@H](C)N(C)C(=O)[C@H]([C@@H](C)CC)NC(=O)[C@@H]2CCCCN2C(=O)C[C@@H](C(=O)N2CCCCC2)N(C)C(=O)[C@H](CC(C)C)NC(=O)C(C)(C)N(C)C1=O [Compound 1424] ([Pip]I[NMeA][Aze][NMeAla(cPent)][Sar][Phe(3-I)][Nle][NMeAib]L[NMeD]-Piperidide; lactam N-11)
[1]
  IC50: 200 nM
[2]
  IC50: > 500 nM

## CC(C)C[C@H]1C(=O)N[C@@H](COC2CCC2)C(=O)N(C)[C@@H](C)C(=O)N2CC[C@H]2C(=O)N(C)[C@@H](CC2CCCCC2)C(=O)N(C)CC(=O)N[C@@H](CCc2ccc(C(F)(F)F)c(Cl)c2)C(=O)N2CCC[C@H]2C(=O)NC2(CCCC2)C(=O)N(C)[C@@H](C(C)C)C(=O)N(C)[C@H](C(=O)N2CCCCC2)CC(=O)N1C [Compound 45] ([NMeL]S(Cyclobutyl)[NMeA][Aze][NMeCha][Sar][hPhe(3-Cl-4-CF3)]P[Ac5c][NMeV][NMeD]-Piperidide; lactam N-11)
[1]
  IC50: 84 nM
[2]
  IC50: > 500 nM

## CCO[C@@H]1C[C@H]2C(=O)NC3(CCCC3)C(=O)N(C)[C@@H](C3CCCC3)C(=O)N(C)[C@H](C)CC(=O)N(C)[C@@H](CC(C)C)C(=O)N[C@@H]([C@@H](C)CC)C(=O)N(C)[C@@H](C)C(=O)N3CC[C@H]3C(=O)N(CC)[C@@H](Cc3ccc(C(F)(F)F)cc3)C(=O)N(C)CC(=O)N[C@@H](CCc3ccc(C(F)(F)F)c(Cl)c3)C(=O)N2C1 [Compound 816] (cyclo([Ac5c][NMeGly(cPent)][NMedβ3hAla][NMeL]I[NMeA][Aze][NEtPhe(4-CF3)][Sar][hPhe(3-Cl-4-CF3)][Hyp](Et)))
[1]
  IC50: 3.9 nM
[2]
  IC50: ≤ 20 nM

## CC[C@H](C)[C@@H]1NC(=O)[C@H](CC(C)C)N(C)C(=O)C[C@@H](C)NC(=O)[C@H](C(C)C)N(C)C(=O)[C@H](Cc2ccccc2)N(C)C(=O)[C@H](CC(C)C)N(C)C(=O)[C@H](CCc2ccc(C(F)(F)F)cc2)NC(=O)CN(C)C(=O)[C@H](Cc2ccc(Cl)cc2)N(C)C(=O)CN(C)C(=O)CN(C)C1=O [Compound 124] (cyclo(I[Sar][Sar][NMePhe(4-Cl)][Sar][hPhe(4-CF3)][NMeL][NMeF][NMeV][d(β3hA)][NMeL]))
[1]
  IC50: 140 nM
[2]
  IC50: > 500 nM

## CCO[C@@H]1C[C@H]2C(=O)NC3(CCC3)C(=O)N(C)[C@@H](C3CCCC3)C(=O)N(C)[C@H](C)CC(=O)N(C)[C@@H](CC(C)C)C(=O)N[C@@H]([C@@H](C)CC)C(=O)N(C)[C@@H](C)C(=O)N3CC[C@H]3C(=O)N(CC)[C@@H](Cc3ccc(C)cc3)C(=O)N(C)CC(=O)N[C@@H](CCc3ccc(C(F)(F)F)c(Cl)c3)C(=O)N2C1 [Compound 713] (cyclo([Ac4c][NMeGly(cPent)][NMedβ3hAla][NMeL]I[NMeA][Aze][NEtPhe(4-Me)][Sar][hPhe(3-Cl-4-CF3)][Hyp](Et)))
[1]
  IC50: 4 nM
[2]
  IC50: ≤ 20 nM

## CC[C@H](C)[C@@H]1NC(=O)[C@H](CC(C)C)N(C)C(=O)C[C@@H](C)NC(=O)[C@H](CC(C)C)N(C)C(=O)C2(CCCC2)NC(=O)[C@H](CC(C)C)N(C)C(=O)[C@H](CCc2ccc(C(F)(F)F)c(Cl)c2)NC(=O)CN(C)C(=O)[C@H](CC2CCCCC2)N(C)C(=O)CN(C)C(=O)CN(C)C1=O [Compound 217] (cyclo([Ac5c][NMeL][d(β3hA)][NMeL]I[Sar][Sar][NMeCha][Sar][hPhe(3-Cl-4-CF3)][NMeL]))
[1]
  IC50: 66 nM
[2]
  IC50: > 500 nM

## CC[C@H](C)[C@@H]1NC(=O)[C@H](CC(C)C)N(C)C(=O)C[C@@H](C(=O)N2CCCCC2)N(C)C(=O)[C@H](COC)N(C)C(=O)C2(CCCC2)NC(=O)[C@@H]2CCCN2C(=O)[C@H](CCc2ccc(C(F)(F)F)c(Cl)c2)NC(=O)CN(C)C(=O)[C@H](CC2CCCCC2)N(C)C(=O)[C@@H]2CCN2C(=O)[C@H](C)N(C)C1=O [Compound 484] ([NMeL]I[NMeA][Aze][NMeCha][Sar][hPhe(3-Cl-4-CF3)]P[Ac5c][NMeS](Me)[NMeD]-Piperidide; lactam N-11)
[1]
  IC50: 110 nM
[2]
  IC50: > 500 nM

## CC(C)C[C@H]1C(=O)N[C@@H]([C@@H](C)O)C(=O)N(C)[C@@H](C)C(=O)N2CC[C@H]2C(=O)N(C)[C@@H](CC2CCCCC2)C(=O)N(C)CC(=O)N[C@@H](CCc2ccc(C(F)(F)F)c(Cl)c2)C(=O)N2CCC[C@H]2C(=O)NC2(CCCC2)C(=O)N(C)[C@@H](C(C)C)C(=O)N(C)[C@H](C(=O)N2CCCCC2)CC(=O)N1C [Compound 450] ([NMeL]T[NMeA][Aze][NMeCha][Sar][hPhe(3-Cl-4-CF3)]P[Ac5c][NMeV][NMeD]-Piperidide; lactam N-11)
[1]
  IC50: 6.6 nM
[2]
  IC50: > 500 nM

## CC[C@H](C)[C@@H]1NC(=O)[C@H](CC(C)C)N(C)C(=O)C[C@@H](C(=O)N2CCCC2)N(C)C(=O)[C@H]([C@@H](C)CC)N(C)C(=O)C2(CCCC2)NC(=O)[C@@H]2CCCN2C(=O)[C@H](CCc2ccc(C(F)(F)F)c(Cl)c2)NC(=O)CN(C)C(=O)[C@H](CC2CCCCC2)N(C)C(=O)[C@@H]2CCN2C(=O)[C@H](C)N(C)C1=O [Compound 1843] ([NMeL]I[NMeA][Aze][NMeCha][Sar][hPhe(3-Cl-4-CF3)]P[Ac5c][NMeI][NMeD]-Pyrrolidide; lactam N-11)
[1]
  IC50: 0.84 nM
[2]
  IC50: ≤ 20 nM

## CC[C@H](C)[C@@H]1NC(=O)[C@H](C)N(C)C(=O)C[C@@H](C)N(C)C(=O)[C@H](C2CCC2)N(C)C(=O)C2(CCCC2)NC(=O)CN(c2ccccc2)C(=O)[C@H](CCc2ccc(C(F)(F)F)c(Cl)c2)NC(=O)CN(C)C(=O)[C@H](CC2CCCCC2)N(C)C(=O)CN(C)C(=O)CN(C)C1=O [Compound 2143] (cyclo([Ac5c][NMeGly(cBu)][NMedβ3hAla][NMeA]I[Sar][Sar][NMeCha][Sar][hPhe(3-Cl-4-CF3)][NPhGly]))
[1]
  IC50: 41 nM
[2]
  IC50: > 500 nM
